Laboratory results as given in patent publication US20040068005A1, “Pharmaceutical combinations” (priority 2000, published 2004).

What was measured:
[1] = system: hypercholesterolaemic, insulin resistant conscious rabbits; experiment: Hyperinsulinaemic euglycaemic glucose clamping (insulin sensitivity), hypercholesterolaemic rabbits; type: in vivo, New Zealand white rabbits; settings: for Glucose infusion rate / M values of hyperinsulinaemic and euglycaemic glucose clamping: hypercholesterolaemic; for Glucose infusion rate: insulin resistant rabbit; for Insulin sensitivity: percent of means, control = 100
Procedure: (§1) The experiments are carried out with adult, male New Zealand white rabbits, weighing 3.0-3.5 kg, housed as described in Am. […] Physiol, 35: H2033-H2041 and J. Moll Cell.. Cardiol.
(§2) To estimate insulin sensitivity and/or insulin resistance, hyperinsulinaemic (100 eU/ml) euglycaemic (5.5 mM/l) glucose clamping was used. The glucose clamping values (M) were established as values of glucose infusion rates expressed in mg/kg/min to maintain blood glucose level at 5.5 mM/l.

[2] = system: normal conscious rabbits; experiment: Hyperinsulinaemic euglycaemic glucose clamping (insulin sensitivity), normal rabbits; type: in vivo, New Zealand white rabbits
Procedure: (§3) The experiments are carried out with adult, male New Zealand white rabbits, weighing 3.0-3.5 kg, housed as described in Am. J. Physiol 1994, Heart Circ. Physiol, 35: H2033-H2041 and J. Moll Cell.. Cardiol. 1997, 29: 1977-1983.
as §2

[3] = system: normal conscious rabbits; experiment: Ventricular pacing-induced myocardial ischaemia (ST-segment elevation), normal rabbits; type: in vivo, New Zealand white rabbits
Procedure: as §1
(§4) The induction of global myocardial ischaemia was based on a method described as above.

[4] = system: human; settings: controlled release ISMN preparations; cited from earlier work
[5] = system: hypercholesterolaemic, insulin resistant conscious rabbits; experiment: Ventricular pacing-induced myocardial ischaemia (ST-segment elevation), hypercholesterolaemic rabbits; type: in vivo, New Zealand white rabbits; settings: hypercholesterolaemic
Procedure: as §1, §4

[6] = system: healthy volunteers; experiment: Oral glucose tolerance test (OGTT) with nitroglycerin patch, plasma glucose and immunoreactive insulin; type: in vivo, human; settings: for Insulin / Glucose: OGTT
Procedure: Twenty persons were studied.
Between 2 oral glucose, tolerance tests (OGTT) the volunteers were randomized for receiving either active NITRODERM TTS 10 (releasing approx. 0.4 mg hours^−1 nitroglycerin) or placebo patches. The study was carried out and evaluated in a double blind fashion. The patients received the glucose solution at 8 a.m. Venous blood samples were taken during fasting (immediately before glucose) and at 15, 30, 60, 90, 120 and 180 minutes after the glucose load. The samples evaluated for plasma glucose level (mmol 1^−1) and immunoreactive insulin responses (eU ml^−1). Plasma glucose was determined by means of an autoanalyzer, using the glucoseoxidease method. Immunoreactive insulin levels were assessed by radioimmunoassay method using antihuman antibody. During the study, two ECG leads (II and V1 or V6) and arterial blood pressure were continuously monitored.

[7] = system: hypercholesterolaemic, insulin resistant rabbits; experiment: Femoral nerve conduction velocity, hyperlipidaemia-induced insulin resistance; type: in vivo, New Zealand white rabbits
Procedure: as §1
These series of experiments were carried out to verify/exclude sensory neuropathy.

[8] = system: streptozotocin diabetic rabbits; experiment: Femoral nerve conduction velocity, streptozotocin diabetes; type: in vivo, New Zealand white rabbits
Procedure: as §3
These series of experiments were carried out to verify/exclude sensory neuropathy. Left saphenous nerve conduction velocity was determined as described in Eur J. Pharmacol 1999, 386:83-88.
Streptozotocin (40 mg/kg i.v.) produced a decrease in nerve conduction velocity in femoral “A” and “C” fibres, respectively, as determined 8 weeks after streptozotocin injection. […] The combination of any of these drugs with nitroglycerin yielded an improvement of conduction velocity in streptozotocin-diabetic aminals similar to that seen with nitroglycerin alone.

[9] = system: isolated pancreatic islets; settings: Am. J. Physiol 1996;271;C1098-C1102; cited from earlier work
[10] = normal rabbits, 2 mg/kg per os ISMN
[11] = normal rabbits, 2 mg/kg per os controlled release ISMN
[12] = normal rabbits, 4 mg/kg per os controlled release ISMN
[13] = sampling 0 (control), active patch approx. 0.4 mg/hour nitroglycerin, n=20
[14] = Table I, sampling 0 (control), active patch

**Q.** For `O=[N+]([O-])O[C@@H]1CO[C@H]2[C@@H]1OC[C@@H]2O` [ISMN, isosorbide-5-mononitrate], which Glucose infusion rate ([1]; metformin 100 mg/kg p.os, ISMN controlled release 5 mg/kg p.os) is on record?
**A.** 14.00 ± 0.8900 mg/kg/min

**Q.** What about the “M values of hyperinsulinaemic and euglycaemic glucose clamping” value (from here on “M values”) ([1]; insulin resistant rabbits vs control, ISMN 5 mg/kg/day (Olicard 40), metformin 100 mg/kg/day p.os over 3 days) of the same molecule?
**A.** significantly increased

**Q.** And the Insulin sensitivity ([1]; ISMN controlled release 5 mg/kg p.os, metformin 100 mg/kg p.os)?
**A.** 144.4%

**Q.** And the Glucose infusion rate ([2]; normal rabbit, metformin 100 mg/kg p.os, ISMN controlled release 5 mg/kg p.os)?
**A.** 16.30 ± 0.8200 mg/kg/min

**Q.** What about the “metabolic (insulin sensitising) and anti-ischaemic effect” value ([2]; normal rabbits, 1 mg/kg per os ISMN) of the same molecule?
**A.** without any effect

**Q.** What about the Glucose infusion rate ([2]; normal rabbits, 1 mg/kg per os controlled release ISMN, control 13.6) of the same molecule?
**A.** 14.2 ± 0.8 mg/kg/min

**Q.** And the “metabolic (insulin sensitising) effect” value [2, 10]?
**A.** significant metabolic effect

**Q.** What about the Glucose infusion rate [2, 11] of the same molecule?
**A.** 16.0 ± 0.9 mg/kg/min

**Q.** And the “metabolic and anti-ischaemic effects” value ([2]; normal rabbits, 4 mg/kg and higher doses per os ISMN)?
**A.** metabolic and anti-ischaemic effects

**Q.** What about the Glucose infusion rate [2, 12] of the same molecule?
**A.** 16.3 ± 1.0 mg/kg/min

**Q.** And the “M values” value ([2]; normal rabbits, drug alone vs control, isosorbide-5-mononitrate 1 mg/kg/day (Olicard 40), metformin 100 mg/kg/day p.os over 3 days)?
**A.** increased

**Q.** What about the “threshold dose of insulin sensitising effect as share of the threshold dose of the anti-ischaemic effect” value ([2]; normal rabbits, per os ISMN) of the same molecule?
**A.** 50%

**Q.** What about the “threshold dose of the insulin sensitising effect” value ([2]; normal rabbits, per os extended-release ISMN) of the same molecule?
**A.** 2 mg/kg

**Q.** What about the ST-segment elevation ([3]; normal rabbits, 1 mg/kg per os controlled release ISMN, control 2.0) of the same molecule?
**A.** 2.0 ± 0.09 mV

**Q.** And the “anti-ischaemic effect (changes in ST-segment elevation)” value [3, 10]?
**A.** statistically insignificant anti-ischaemic effect

**Q.** And the ST-segment elevation [3, 11]?
**A.** 1.9 ± 0.16 mV

**Q.** And the ST-segment elevation [3, 12]?
**A.** 1.4 ± 0.12 mV

**Q.** What about the threshold anti-anginal dose [4] of the same molecule?
**A.** 30 mg/day

**Q.** For `O=[N+]([O-])OCC(CO[N+](=O)[O-])O[N+](=O)[O-]` [Nitroglycerin, nitroglycerin], which Glucose infusion rate ([1]; with active patch (nitroglycerin 0.07 mg/kg/h), alone (Control) or together with the drug, same doses) is on record?
**A.** 12.667 mg/kg/min

**Q.** What about the “M values” value ([1]; insulin resistant rabbits, nitroglycerin (0, 0.7 mg/kg/h) alone) of the same molecule?
**A.** increased

**Q.** What about the Insulin sensitivity ([1]; nitroglycerin patch 0.07 mg/kg/h, metformin 5 mg/kg i.v., troglitazon 70 mg/kg p.os) of the same molecule?
**A.** 140.7%

**Q.** And the ST-segment elevation ([5]; insulin resistant rabbit, with active patch (nitroglycerin 0.07 mg/kg/h), alone (Control) or with the drug)?
**A.** 1.4 ± 0.10 mV

**Q.** And the “intracavitary ST-segment elevation / ischaemic changes produced by VOP” value ([5]; insulin resistant rabbits, drug alone)?
**A.** significantly decreased

**Q.** What about the Glucose infusion rate ([2]; normal rabbit, with active patch (nitroglycerin 0.07 mg/kg/h), alone (Control) or together with the drug, troglitazon 70 mg/kg p.os, metformin 5 mg/kg i.v., glibenclamide 1 mg/kg i.v., idazoxan 2 mg/kg i.v.) of the same molecule?
**A.** 16.857 mg/kg/min

**Q.** And the Insulin ([6]; 15 min, active patch)?
**A.** 38.9 ± 4.4^#+ μU ml^−1

**Q.** What about the Glucose ([6]; 15 min after glucose load, active patch) of the same molecule?
**A.** 7.3 ± 1.1^+ mmol l^−1

**Q.** And the Glucose ([6]; 30 min, active patch)?
**A.** 6.1 ± 0.6^+ mmol l^−1

**Q.** And the Insulin ([6]; 30 min, active patch)?
**A.** 36.3 ± 5.0^#+ μU ml^−1

**Q.** And the Glucose ([6]; 60 min, active patch)?
**A.** 5.5 ± 0.4 mmol/L

**Q.** And the Insulin ([6]; 60 min, active patch)?
**A.** 25.6 ± 3.3^#+ μU ml^−1

**Q.** What about the Glucose ([6]; 90 min, active patch) of the same molecule?
**A.** 4.7 ± 0.7 mmol/L

**Q.** And the Insulin ([6]; 90 min, active patch)?
**A.** 24.1 ± 2.9^#+ μU ml^−1

**Q.** And the Glucose ([6]; 120 min, active patch)?
**A.** 4.2 ± 0.3 mmol/L

**Q.** What about the Insulin ([6]; 120 min, active patch) of the same molecule?
**A.** 15.2 ± 2.4^+ μU ml^−1

**Q.** And the Glucose ([6]; 180 min, active patch)?
**A.** 4.5 ± 0.5 mmol/L

**Q.** And the Insulin ([6]; 180 min, active patch)?
**A.** 14.4 ± 2.6^ μU ml^−1

**Q.** And the Glucose [6, 13]?
**A.** 4.2 ± 0.3 mmol/L

**Q.** And the Insulin [6, 13]?
**A.** 8.2 ± 0.9^ μU ml^−1

**Q.** What about the Glucose ([6]; Table I, 15 min, active patch) of the same molecule?
**A.** 7.3 ± 1.1 mmol⁻¹

**Q.** What about the Insulin ([6]; Table I, 15 min, active patch) of the same molecule?
**A.** 38.9 ± 4.4 μU mL^−1

**Q.** What about the Glucose ([6]; Table I, 30 min, active patch) of the same molecule?
**A.** 6.1 ± 0.6 mmol⁻¹

**Q.** What about the Insulin ([6]; Table I, 30 min, active patch) of the same molecule?
**A.** 36.3 ± 5.0 μU mL^−1

**Q.** And the Glucose ([6]; Table I, 60 min, active patch)?
**A.** 5.5 ± 0.4 mmol⁻¹

**Q.** And the Insulin ([6]; Table I, 60 min, active patch)?
**A.** 25.6 ± 3.3 μU mL^−1

**Q.** And the Glucose ([6]; Table I, 90 min, active patch)?
**A.** 4.7 ± 0.7 mmol⁻¹

**Q.** And the Insulin ([6]; Table I, 90 min, active patch)?
**A.** 24.1 ± 2.9 μU mL^−1

**Q.** And the Glucose ([6]; Table I, 120 min, active patch)?
**A.** 4.2 ± 0.3 mmol⁻¹

**Q.** And the Insulin ([6]; Table I, 120 min, active patch)?
**A.** 15.2 ± 2.4 μU mL^−1

**Q.** What about the Glucose ([6]; Table I, 180 min, active patch) of the same molecule?
**A.** 4.5 ± 0.5 mmol⁻¹

**Q.** And the Insulin ([6]; Table I, 180 min, active patch)?
**A.** 14.4 ± 2.6 μU mL^−1

**Q.** And the Glucose [6, 14]?
**A.** 4.2 ± 0.3 mmol⁻¹

**Q.** What about the Insulin [6, 14] of the same molecule?
**A.** 8.2 ± 0.9 μU mL^−1

**Q.** What about the plasma glucose levels ([6]; active vs placebo patch group) of the same molecule?
**A.** no differences

**Q.** What about the “increase in insulin in response to oral glucose load” value ([6]; compared to placebo patch group) of the same molecule?
**A.** significantly decreased

**Q.** What about the “decrease in nerve conduction velocity in “C” fibres after atherogenic diet” value ([7]; eight-week atherogenic diet, drug alone) of the same molecule?
**A.** attenuated

**Q.** And the Nerve conduction velocity ([7]; femoral “C” fibers, hypercholesterolaemic, insulin resistant rabbit, with active patch (nitroglycerin 0.07 mg/kg/h), alone (Control) or with troglitazon 70 mg/kg p.os)?
**A.** 4.3 ± 0.4 dm/s

**Q.** What about the “intracavitary ST-segment elevation” value ([3]; normal conscious rabbits, drug alone) of the same molecule?
**A.** significantly decreased

**Q.** And the ST-segment elevation ([3]; normal rabbit, with active patch (nitroglycerin 0.07 mg/kg/h), alone (Control) or with the drug)?
**A.** 0.7 ± 0.10 mV

**Q.** And the Nerve conduction velocity ([8]; femoral “C” fibers, streptozotocin diabetic rabbit, with active patch (nitroglycerin 0.07 mg/kg/h), alone (Control) or with the drug)?
**A.** 3.6 ± 0.2 dm/s

**Q.** And the “nerve conduction in “C” fibres” value ([8]; streptozotocin-diabetes model, drug alone, nitroglycerin 12-h patch on vs 12-h patch off over three days)?
**A.** significantly improved

**Q.** What about the ““A” fibre conduction” value ([8]; streptozotocin-diabetes model, nitroglycerin patch, data not shown) of the same molecule?
**A.** marginal amelioration

**Q.** Which insulin release [9] does the source give for `N=c1c[n+](N2CCOCC2)[n-]o1` [SIN-1, 3-morpholinosydnonimine] here?
**A.** inhibit insulin release
